In patent US7598223B2, “Methods for producing target cell reactive lymphocytes” (The Board of Trustees of the Leland Stanford Junior …, priority 2004, dated 2009):

Assays:
T2 cells [1] = assay: Determination of recognition efficiency (RE): 51Cr-release lysis of peptide-pulsed T2 targets by CTL clones; type: cell-based, human; conditions: for RE score (negative log10 of the peptide concentration required for 40% specific lysis): peptide-pulsed T2 cells, E:T ratio 10:1; for Mean RE (weighted): target cells pulsed with native peptide
Experimental: FIGS. 3A-3J. […] All assays were performed in triplicate and each clone was assayed twice. Error bars reflect variation between two separate assays. 3a.-c. CTL clones 476.105 and 132.1 were assayed for lysis of T2 cells pulsed with 10-fold dilutions of a. native or c. heteroclitc peptide at concentrations ranging from 100 fg/ml to 100 ng/ml. b. CTL clones 476.105 and 132.1 were assayed for lysis of Malme-3M melanoma cells. d.-e. […] Endogenous (461 and 132) and vaccine-induced (517, 520, 422 and 476) CTL clones were compared for RE in lysing target cells. f-g. […] Mean RE (weighted) for each response is indicated with horizontal bars. Weighted means were based on all clones, not only those assayed, and were estimated by summing the RE of each analyzed clone multiplied by the number of total clones expressing the same V-beta in each patient.
2. […] The E:T ratio was based upon live T and target cells. For each T cell clone, % cytotoxicity was plotted against peptide concentration. The peptide concentration at which the curve crosses 40% cytotoxicity was defined as the RE of that clone (Marguiles, Nat. Immunol. (2001) 2:669-670.
Similar RE assays were performed for the remaining clones from each patient selected for analysis. In order to compare REs of various CTL lines, each clone was assigned an RE score expressed as the negative log10 value of the peptide concentration required for 40% percent specific lysis at an E:T ratio of 10:1. […] We estimated the composite RE of the overall TAA-specific response (composed of a heterogeneous population of T cells) in vivo by summing the RE of each clone multiplied by its representation in the original mixture (the representation was estimated based on the proportion of TAA-specific cells expressing the same V-beta as the clone).

[2] = biological target: tetramer+ CD8+ T cells of patient 461 (their T cell receptors); assay: flow cytometry, tetramer staining of patient PBMC
[3] = biological target: tetramer+ CD8+ T cells of patient 517 (their T cell receptors); assay: flow cytometry, tetramer staining of patient PBMC
[4] = biological target: tetramer+ CD8+ T cells of patient 132 (their T cell receptors); assay: flow cytometry, tetramer staining of patient PBMC
[5] = biological target: tetramer+ CD8+ T cells of patient 422 (their T cell receptors); assay: flow cytometry, tetramer staining of patient PBMC
[6] = biological target: tetramer+ CD8+ T cells of patient 476 (their T cell receptors); assay: flow cytometry, tetramer staining of patient PBMC
T2 cells [7] = assay: Micro-cytotoxicity 51Cr-release assay with tetramer+/CD8+ cells sorted from PBMC of patient 422; type: cell-based, human; conditions: patient 422 G209-2M tetramer+ cells; peptide 1 μg/ml; 4 hours
From the text: Six patients with T cell responses specific for MART-1 or gp100 were selected for analysis. PBMC from each patient were stained with PE-conjugated peptide-MHC tetramers: G209-2M-tet PE or M26-tet PE, and co-stained with anti-CD8 FITC and anti-CD14, -CD19, and -CD4 Cy5PE. The plots shown are gated for CD14-, CD19-, and CD4-cells. Tetramer+/CD8+ cells are boxed. […] Micro-cytotoxicity ^51Cr-release assay with tetramer+/CD8+ cells isolated by FACS from the PBMC from patient 422. Isolated cells were assayed for lysis of T2 cells treated with relevant (G209-2M, G209n) or irrelevant (CMV) peptide, or mel 526 melanoma cells. Sorted cells were combined with 250 target cells at 13:1 E:T ratios for 4 hours and supernatants were assayed for percent specific release of radio-label.
Microcytotoxic assay: Cells were isolated directly from PBMC from patient 422 by FACS as described above. Cells were collected in microfuge tubes containing 1 ml ice cold 90% IMDM, with 10% FBS. Collected cells were washed and resuspended to 83,300 cells/ml in 90% IMDM, with 10% FBS. Targets were prepared as described above and resuspended to 8,300 cells/ml in 90% IMDM, with 10% FBS. […] Percent specific release of ^51Cr was calculated from 40 μl cell-free supernatant.

## ITAQVPSFV (SEQ ID NO:2) [G209-3A]
T2 cells [1]; any concentrations, data not shown
  Activation of G209-specific target cell lysis by T cell clones: does not activate

## HLA-A*0201/M26 peptide tetramer-phycoerythrin (from UniProt P61769 21-119) (peptide-MHC)
[2]
  estimated percentage of total CD8+ cells that are also tetramer+/CD8+: 0.5%
[3]
  estimated percentage of total CD8+ cells that are also tetramer+/CD8+: 0.23%

## HLA-A*0201/G209-2M peptide tetramer-phycoerythrin (from UniProt P61769 21-119) (peptide-MHC)
[4]
  estimated percentage of total CD8+ cells that are also tetramer+/CD8+: 0.22%
[5]
  estimated percentage of total CD8+ cells that are also tetramer+/CD8+: 2.5%
[6]
  estimated percentage of total CD8+ cells that are also tetramer+/CD8+: 0.31%

## IMDQVPSFV (SEQ ID NO:4) [G209-2M, heteroclitic peptide vaccine gp100 209-217 (210M), reference compound]
T2 cells [1]; CTL clone 132.1
  RE score (negative log10 of the peptide concentration required for 40% specific lysis): 11.2
T2 cells [1]; CTL clone 476.105
  RE score (negative log10 of the peptide concentration required for 40% specific lysis): 11.2
T2 cells [7]
  Lysis of peptide-pulsed T2 cells by directly isolated tetramer+ T cells: specifically lysed

## ITDQVPSFV (SEQ ID NO:1) (syArtificial Sequence) [G209n, native G209n peptide; agonist]
T2 cells [1]; CTL clone 132.1
  RE score (negative log10 of the peptide concentration required for 40% specific lysis): 11.1
T2 cells [1]; CTL clone 476.105
  RE score (negative log10 of the peptide concentration required for 40% specific lysis): 8.3
T2 cells [1]; CTL clones of patient 132 (endogenous)
  Mean RE (weighted): 11.2
T2 cells [1]; CTL clones of patient 422 (vaccine-induced)
  Mean RE (weighted): 9.7
T2 cells [1]; CTL clones of patient 476 (vaccine-induced)
  Mean RE (weighted): 9.9
T2 cells [7]
  Lysis of peptide-pulsed T2 cells by directly isolated tetramer+ T cells: specifically lysed
